# Reference: paper PMC12892976, “Alkylation-based optimization of antifungal FPPS inhibitors yields a potent, broad-spectrum lipophilic zoledronate derivative” (mBio, 2025)
# What was measured:
# [1] = tested on: Cryptococcus tetragattii; assay: MIC broth microdilution (CLSI); assay type: cell-based; conditions: Cryptococcus tetragattii WM779
# Method: (§2) Antifungal susceptibility was determined by broth microdilution according to the CLSI guidelines described in M27-Ed4 ([16]).
# [2] = tested on: Cryptococcus deneoformans; assay: MIC broth microdilution (CLSI); assay type: cell-based; conditions: Cryptococcus deneoformans JEC21
# Method: as §2
# [3] = tested on: Fusarium oxysporum; assay: MIC broth microdilution (CLSI); assay type: cell-based; conditions: Fusarium oxysporum 07-200-3012
# Method: as §2
# [4] = tested on: Pichia kudriavzevii; assay: MIC broth microdilution (CLSI); assay type: cell-based; conditions: Pichia kudriavzavii ATCC 6258
# Method: Antifungal susceptibility was determined by broth microdilution according to the CLSI guidelines described in M27-Ed4 ([16]). […] MFC was determined by back-plating drug-treated cultures from MIC broths onto SDA plates. The MFC was defined as the lowest concentration from which no colonies could be cultured.
# [5] = tested on: Aspergillus lentulus; assay: MIC broth microdilution (CLSI); assay type: cell-based; conditions: Aspergillus lentulus DTO 341-G7
# Method: as §2
# [6] = tested on: Epidermophyton floccosum; assay: MIC broth microdilution (CLSI); assay type: cell-based; conditions: Epidermophyon floccosum R-113
# Method: as §2
# [7] = tested on: Paraphyton cookei; assay: MIC broth microdilution (CLSI); assay type: cell-based; conditions: Paraphyton cookei R-639
# Method: as §2
# [8] = tested on: Nannizzia gypsea; assay: MIC broth microdilution (CLSI); assay type: cell-based; conditions: Nannizzia gypsea R-131
# Method: as §2
# [9] = tested on: Trichophyton interdigitale; assay: MIC broth microdilution (CLSI); assay type: cell-based; conditions: Trichophyton interdigitale R-234
# Method: as §2
# [10] = tested on: Rhizopus oryzae; assay: checkerboard drug interaction (FICI, MICc); assay type: cell-based;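 also: simplified diagonal checkerboard screen pairing antifungals with FPPS inhibitors, FICI calculated under the Loewe additivity model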
# Method: (§3) Drug interactions between antifungals and FPPS inhibitors were investigated using a simplified checkerboard diagonal screening method ([45]). […] FICIs were determined according to the Loewe additivity model ([17]).
# [11] = tested on: Cryptococcus bacillisporus; assay: checkerboard drug interaction (FICI, MICc); assay type: cell-based;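 also: interaction of antifungals with FPPS inhibitors assessed by a simplified diagonal checkerboard screen, with FICI computed under the Loewe additivity model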
# Method: as §3
# [12] = tested on: Cryptococcus deneoformans; assay: checkerboard drug interaction (FICI, MICc); assay type: cell-based;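 also: simplified diagonal checkerboard screen pairing antifungals with FPPS inhibitors, FICI calculated under the Loewe additivity model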
# Method: as §3
# [13] = tested on: Pichia kudriavzevii; assay: checkerboard drug interaction (FICI, MICc); assay type: cell-based;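 also: antifungal plus FPPS inhibitor interactions tested in a simplified diagonal checkerboard screen, with FICI calculated under the Loewe additivity model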
# Method: as §3
# [14] = tested on: Candida tropicalis; assay: checkerboard drug interaction (FICI, MICc); assay type: cell-based;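 also: simplified diagonal checkerboard screen of antifungal plus FPPS inhibitor combinations, with FICI computed by the Loewe additivity model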
# Method: as §3
# [15] = tested on: Candida dubliniensis; assay: checkerboard drug interaction (FICI, MICc); assay type: cell-based;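 also: simplified diagonal checkerboard screen pairing antifungals with FPPS inhibitors, FICI calculated under the Loewe additivity model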
# Method: as §3
# [16] = tested on: Aspergillus terreus; assay: checkerboard drug interaction (FICI, MICc); assay type: cell-based;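 also: simplified diagonal checkerboard screen pairing antifungals with FPPS inhibitors, FICI derived by the Loewe additivity model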
# Method: as §3
# [17] = tested on: Aspergillus udagawae; assay: checkerboard drug interaction (FICI, MICc); assay type: cell-based;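 also: simplified diagonal checkerboard screen pairing antifungals with FPPS inhibitors, FICI calculated using the Loewe additivity model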
# Method: as §3
# [18] = tested on: Aspergillus felis; assay: checkerboard drug interaction (FICI, MICc); assay type: cell-based;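 also: simplified diagonal checkerboard screen pairing antifungals with FPPS inhibitors, FICI calculated under the Loewe additivity model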
# Method: as §3
# [19] = tested on: Saccharomyces cerevisiae biofilms; assay: biofilm XTT reduction assay (SIC80, SFICI); assay type: cell-based; conditions: for SICc: Saccharomyces cerevisiae; for SIC80: agent alone, Saccharomyces cerevisiae S288c
# Method: (§4) Biofilms of Cryptococcus were seeded in DMEM, and all other species were seeded in RPMI-1640.
# [20] = tested on: Aspergillus flavus biofilms; assay: biofilm XTT reduction assay (SIC80, SFICI); assay type: cell-based; conditions: for SICc: Aspergillus flavus; for SIC80: agent alone, Aspergillus flavus ATCC 204304
# From the text: (§1) […]. […] […].
# [21] = tested on: Aspergillus fumigatus biofilms; assay: biofilm XTT reduction assay (SIC80, SFICI); assay type: cell-based; conditions: for SICc: Aspergillus fumigatus; for SIC80: agent alone, Aspergillus fumigatus ATCC 204305
# From the text: as §1
# [22] = tested on: Candida glabrata biofilms; assay: biofilm XTT reduction assay (SIC80, SFICI); assay type: cell-based; conditions: for SICc: Candida glabrata; for SIC80: agent alone, Candida glabrata CBS138
# From the text: as §1
# [23] = tested on: Trichophyton rubrum biofilms; assay: biofilm XTT reduction assay (SIC80, SFICI); assay type: cell-based; conditions: biofilm; for SICc: Trichophyton rubrum; for SIC80: agent alone, Trichophyton rubrum 213
# Method: as §4
# [24] = tested on: Fusarium solani; assay: MIC broth microdilution (CLSI); conditions: Fusarium solani 04-16-056-1862
# Method: as §2
# [25] = tested on: Microsporum canis; assay: MIC broth microdilution (CLSI); conditions: Microsporum canis R-232
# Method: as §2
# [26] = tested on: Trichophyton tonsurans; assay: MIC broth microdilution (CLSI); conditions: Trichophyton tonsurans R-168
# Method: as §2
# [27] = tested on: Trichophyton soudanense; assay: MIC broth microdilution (CLSI); conditions: Trichophyton soudanense R-167
# Method: as §2
# [28] = tested on: Paraphyton cookei; assay: checkerboard drug interaction (FICI, MICc);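 also: simplified diagonal checkerboard screen pairing an antifungal with an FPPS inhibitor, FICI computed under the Loewe additivity model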
# Method: as §3
# [29] = tested on: Candida albicans biofilms; assay: biofilm XTT reduction assay (SIC80, SFICI); conditions: for SICc: Candida albicans; for SIC80: agent alone, Candida albicans SC5314
# Method: as §4
# [30] = tested on: Cryptococcus neoformans biofilms; assay: biofilm XTT reduction assay (SIC80, SFICI); conditions: for SICc: Cryptococcus neoformans; for SIC80: agent alone, Cryptococcus neoformans H99
# Method: as §4
# [31] = tested on: Cryptococcus deuterogattii biofilms; assay: biofilm XTT reduction assay (SIC80, SFICI); conditions: for SICc: Cryptococcus deuterogattii; for SIC80: agent alone, Cryptococcus deuterogattii R265
# Method: as §4
smiles,measurement,setting,value
"CCC(C)n1ncn(-c2ccc(N3CCN(c4ccc(OCC5COC(Cn6cncn6)(c6ccc(Cl)cc6Cl)O5)cc4)CC3)cc2)c1=O (centres unmarked) [ITR, itraconazole]",MIC / MEC,[1],0.5 µg/mL
same,MIC / MEC,[2],0.06 µg/mL
same,MIC / MEC,[3],4 µg/mL
same,MIC / MEC,[4],1 µg/mL
same,MIC / MEC,[5],2 µg/mL
same,MIC / MEC,[6],1 µg/mL
same,MIC / MEC,[7],2 µg/mL
same,MIC / MEC,[8],2 µg/mL
same,MIC / MEC,[9],1 µg/mL
same,antifungal MICc,[10]; in combination with 10-ZOL,0.125
same,antifungal MICc,[10]; in combination with ZOL,2
same,antifungal MICc,[11]; in combination with 10-ZOL,0.033
same,antifungal MICc,[11]; in combination with ZOL,0.0625
same,antifungal MICc,[12]; in combination with 10-ZOL,0.063
same,antifungal MICc,[12]; in combination with ZOL,0.125
same,antifungal MICc,[13]; in combination with 10-ZOL,1
same,antifungal MICc,[13]; in combination with ZOL,0.25
same,antifungal MICc,[14]; in combination with 10-ZOL,0.125
same,antifungal MICc,[14]; in combination with ZOL,0.062
same,antifungal MICc,[15]; in combination with 10-ZOL,0.033
same,antifungal MICc,[15]; in combination with ZOL,0.03125
same,antifungal MICc,[16]; in combination with 10-ZOL,0.25
same,antifungal MICc,[16]; in combination with ZOL,0.13
same,antifungal MICc,[17]; in combination with 10-ZOL,0.25
same,antifungal MICc,[17]; in combination with ZOL,0.5
same,antifungal MICc,[18]; in combination with 10-ZOL,0.5
same,antifungal MICc,[18]; in combination with ZOL,1
same,SICc,[19]; ITR:10-ZOL combination,16 µg/mL
same,SIC80,[19],32 µg/mL
same,SICc,[20]; ITR:10-ZOL combination,64 µg/mL
same,SIC80,[20],128 µg/mL
same,SICc,[21]; ITR:10-ZOL combination,128 µg/mL
same,SIC80,[21],256 µg/mL
same,SICc,[22]; ITR:10-ZOL combination,128 µg/mL
same,SIC80,[22],256 µg/mL
same,SICc,[23]; ITR:10-ZOL combination,64 µg/mL
same,SIC80,[23],>256 µg/mL
same,MIC / MEC,[24],2 µg/mL
same,MIC / MEC,[25],0.5 µg/mL
same,MIC / MEC,[26],1 µg/mL
same,MIC / MEC,[27],0.5 µg/mL
same,antifungal MICc,[28]; in combination with 10-ZOL,0.063
same,antifungal MICc,[28]; in combination with ZOL,1
same,SICc,[29]; ITR:10-ZOL combination,128 µg/mL
same,SIC80,[29],256 µg/mL
same,SICc,[30]; ITR:10-ZOL combination,32 µg/mL
same,SIC80,[30],64 µg/mL
same,SICc,[31]; ITR:10-ZOL combination,64 µg/mL
same,SIC80,[31],128 µg/mL
"CC(=O)N1CCN(c2ccc(OCC3COC(Cn4ccnc4)(c4ccc(Cl)cc4Cl)O3)cc2)CC1 (centres unmarked) [KET, ketoconazole]",MIC / MEC,[1],0.5 µg/mL
same,MIC / MEC,[2],0.13 µg/mL
same,MIC / MEC,[3],16 µg/mL
same,MIC / MEC,[4],0.25 µg/mL
same,MIC / MEC,[5],16 µg/mL
same,MIC / MEC,[6],2 µg/mL
same,MIC / MEC,[7],8 µg/mL
same,MIC / MEC,[8],16 µg/mL
same,MIC / MEC,[9],8 µg/mL
same,antifungal MICc,[10]; in combination with 10-ZOL,4
same,antifungal MICc,[10]; in combination with ZOL,16
same,antifungal MICc,[11]; in combination with 10-ZOL,0.125
same,antifungal MICc,[11]; in combination with ZOL,0.25
same,antifungal MICc,[12]; in combination with 10-ZOL,0.063
same,antifungal MICc,[12]; in combination with ZOL,0.03125
same,antifungal MICc,[13]; in combination with 10-ZOL,0.25
same,antifungal MICc,[13]; in combination with ZOL,0.06
same,antifungal MICc,[14]; in combination with 10-ZOL,4
same,antifungal MICc,[14]; in combination with ZOL,0.5
same,antifungal MICc,[15]; in combination with 10-ZOL,0.006
same,antifungal MICc,[15]; in combination with ZOL,0.005
same,antifungal MICc,[16]; in combination with 10-ZOL,2
same,antifungal MICc,[16]; in combination with ZOL,0.25
same,antifungal MICc,[17]; in combination with 10-ZOL,0.5
same,antifungal MICc,[17]; in combination with ZOL,2
same,antifungal MICc,[18]; in combination with 10-ZOL,4
same,antifungal MICc,[18]; in combination with ZOL,8
same,SICc,[19]; KET:10-ZOL combination,16 µg/mL
same,SIC80,[19],32 µg/mL
same,SICc,[20]; KET:10-ZOL combination,64 µg/mL
same,SIC80,[20],128 µg/mL
same,SICc,[21]; KET:10-ZOL combination,64 µg/mL
same,SIC80,[21],256 µg/mL
same,SICc,[22]; KET:10-ZOL combination,64 µg/mL
same,SIC80,[22],256 µg/mL
same,SICc,[23]; KET:10-ZOL combination,64 µg/mL
same,SIC80,[23],256 µg/mL
same,MIC / MEC,[24],16 µg/mL
same,MIC / MEC,[25],16 µg/mL
same,MIC / MEC,[26],4 µg/mL
same,MIC / MEC,[27],4 µg/mL
same,antifungal MICc,[28]; in combination with 10-ZOL,1
same,antifungal MICc,[28]; in combination with ZOL,4
same,SICc,[29]; KET:10-ZOL combination,32 µg/mL
same,SIC80,[29],64 µg/mL
same,SICc,[30]; KET:10-ZOL combination,16 µg/mL
same,SIC80,[30],32 µg/mL
same,SICc,[31]; KET:10-ZOL combination,32 µg/mL
same,SIC80,[31],256 µg/mL
